SMILES strings stand for the structures. Like-named read-outs stand apart in the source and are kept apart here.

In the test the test system is Mycosphaerella graminicola; Anamorph: Septoria tritici; Bayer Code SEPTTR. Put plainly: Leaf blotch of wheat, foliar fungicide treatment, one day protectant (1DP) or three day curative (3DC). The format is in vivo, Septoria tritici on wheat plants (variety Yuma). The settings on record: Zymoseptoria tritici.
The mark [1] stands for this setting: 24 h, one day protectant (1DP), percent disease control rating, read-out: SETTTR 1DP 25 ppm.
Where [2] appears, read: 24 h, one day protectant (1DP), percent disease control rating, read-out: SEPTTR 1DP 100 ppm.
The mark [3] stands for this setting: 72 h, three day curative (3DC), percent disease control rating, read-out: SEPTTR 3DC 25 ppm.
[4] abbreviates: 72 h, three day curative (3DC), percent disease control rating, read-out: SEPTTR 3DC 100 ppm.
[5] abbreviates: 24 h, one day protectant (1DP), rating of percent disease control, read-out: SETTTR 1DP 25 ppm.
Setting [6] is: 24 h, one day protectant (1DP), rating of percent disease control, read-out: SEPTTR 1DP 100 ppm.
The mark [7] stands for this setting: 72 h, three day curative (3DC), rating of percent disease control, read-out: SEPTTR 3DC 25 ppm.
Where [8] appears, read: 72 h, three day curative (3DC), rating of percent disease control, read-out: SEPTTR 3DC 100 ppm.

`Nc1nc(OCc2cc(C(F)(F)F)cc(C(F)(F)F)c2)ncc1F` [Compound 139]: the pest or weed control at 25 ppm reads like this: under setting [1], 26 to 50%; under setting [3], 0 to 25%. Also, the pest or weed control at 100 ppm under setting [2] fell in the range of 51 to 75% and the pest or weed control at 100 ppm under setting [4] was 26 to 50%.

Regarding `Cc1cccc(C)c1C(=O)Oc1ncc(F)c(/N=C/N(C)C)n1` [Compound 140], the pest or weed control at 25 ppm by setting is: under setting [1], 76 to 100%; under setting [3], 76 to 100%. In addition, the pest or weed control at 100 ppm under setting [2] lay in the range of 76 to 100% and the pest or weed control at 100 ppm under setting [4] lay in the range of 76 to 100%.

For the compound `N#Cc1cccc(COc2ncc(F)c(NC(=O)Nc3ccccc3F)n2)c1` [Compound 142], the pest or weed control at 25 ppm by setting is: under setting [1], 0 to 25%; under setting [3], 0 to 25%. Also, the pest or weed control at 100 ppm is, setting by setting: under setting [2], 0 to 25%; under setting [4], 0 to 25%.

`Nc1nc(OCc2cccc(C(F)(F)F)c2F)ncc1F` [Compound 144]: the pest or weed control at 25 ppm is, setting by setting: under setting [1], 76 to 100%; under setting [3], 76 to 100%. The pest or weed control at 100 ppm runs as follows: under setting [2], 76 to 100%; under setting [4], 76 to 100%.

Take `Cc1ccc(C(C)Oc2ncc(F)c(N)n2)cc1C` (centres unmarked) [Compound 145]: the pest or weed control at 25 ppm reads like this: under setting [1], 76 to 100%; under setting [3], 76 to 100%. Also, the pest or weed control at 100 ppm reads like this: under setting [2], 76 to 100%; under setting [4], 76 to 100%.

Consider `CC(C)N(O)c1nc(OCc2ccc(F)cc2)ncc1F` [Compound 147], for which the pest or weed control at 25 ppm under setting [1] was in the range of 0 to 25% and the pest or weed control at 25 ppm under setting [3] was in the range of 26 to 50%. Moreover, the pest or weed control at 100 ppm lay in the range of 51 to 75% under setting [2] and 26 to 50% under setting [4].

`COc1cccc(COc2ncc(F)c(N/N=C\c3nc(C)cs3)n2)c1` [Compound 148]: the pest or weed control at 25 ppm was 51 to 75% under setting [1] and 0 to 25% under setting [3]. In addition, the pest or weed control at 100 ppm by setting is: under setting [2], 51 to 75%; under setting [4], 0 to 25%.

Consider `CC(Oc1ncc(F)c(NC(=O)c2ccccc2)n1)c1ccc(F)cc1` (centres unmarked) [Compound 149], for which the pest or weed control at 25 ppm reads like this: under setting [1], 26 to 50%; under setting [3], 0 to 25%. The pest or weed control at 100 ppm reads like this: under setting [2], 76 to 100%; under setting [4], 51 to 75%.

For the compound `CCOC(=O)Nc1nc(OCc2ccccc2OC)ncc1F` [Compound 150], the pest or weed control at 25 ppm runs as follows: under setting [1], 0 to 25%; under setting [3], 26 to 50%. Also, the pest or weed control at 100 ppm by setting is: under setting [2], 76 to 100%; under setting [4], 76 to 100%.

In the case of `O=[N+]([O-])c1ccccc1SNc1nc(OCc2ccc3c(c2)OCO3)ncc1F` [Compound 151], the pest or weed control at 25 ppm fell in the range of 0 to 25% under setting [1] and 26 to 50% under setting [3]. For the same compound, the pest or weed control at 100 ppm is, setting by setting: under setting [2], 0 to 25%; under setting [4], 26 to 50%.

On to `Cc1cc(/C=N/Nc2nc(OCc3ccccc3)ncc2F)n(C)n1` [Compound 152], for which the pest or weed control at 25 ppm under setting [1] was 26 to 50% and the pest or weed control at 25 ppm under setting [3] is 26 to 50%. Besides, the pest or weed control at 100 ppm is, setting by setting: under setting [2], 76 to 100%; under setting [4], 76 to 100%.

For `N#Cc1cccc(COc2ncc(F)c(NCO)n2)c1` [Compound 153], the pest or weed control at 25 ppm by setting is: under setting [1], 76 to 100%; under setting [3], 76 to 100%. The pest or weed control at 100 ppm under setting [2] was 76 to 100% and the pest or weed control at 100 ppm under setting [4] was in the range of 76 to 100%.

Consider `Nc1nc(OCc2c(F)cc(Br)cc2F)ncc1F` [Compound 154], for which the pest or weed control at 25 ppm was 76 to 100% under setting [1] and 76 to 100% under setting [3]. Moreover, the pest or weed control at 100 ppm by setting is: under setting [2], 76 to 100%; under setting [4], 76 to 100%.

`Nc1nc(OCc2ccc(F)c(Br)c2)ncc1F` [Compound 156]: the pest or weed control at 25 ppm was 76 to 100% under setting [1] and 76 to 100% under setting [3]. Also, the pest or weed control at 100 ppm runs as follows: under setting [2], 76 to 100%; under setting [4], 76 to 100%.

In the case of `O=[N+]([O-])c1ccccc1SNc1nc(OCc2ccsc2)ncc1F` [Compound 157], the pest or weed control at 25 ppm lay within 26 to 50% under setting [1] and 26 to 50% under setting [3]. Besides, the pest or weed control at 100 ppm reads like this: under setting [2], 76 to 100%; under setting [4], 26 to 50%.

For the compound `COCCCOc1ncc(F)c(NC(=O)Nc2ccsc2)n1` [Compound 159], the pest or weed control at 25 ppm runs as follows: under setting [1], 0 to 25%; under setting [3], 26 to 50%. The pest or weed control at 100 ppm lay in the range of 0 to 25% under setting [2] and 0 to 25% under setting [4].

With `CN1CCCC/C1=N\c1nc(OCc2ccc(F)cc2)ncc1F` [Compound 160], the pest or weed control at 25 ppm runs as follows: under setting [1], 76 to 100%; under setting [3], 76 to 100%. Further, the pest or weed control at 100 ppm under setting [2] fell in the range of 76 to 100% and the pest or weed control at 100 ppm under setting [4] was in the range of 76 to 100%.

As to `COc1cccc(COc2ncc(F)c(NO)n2)c1` [Compound 161], the pest or weed control at 25 ppm runs as follows: under setting [1], 76 to 100%; under setting [3], 26 to 50%. In addition, the pest or weed control at 100 ppm reads like this: under setting [2], 76 to 100%; under setting [4], 76 to 100%.

In the case of `Cc1ccc(COc2ncc(F)c(NCOCc3ccccc3)n2)cc1` [Compound 162], the pest or weed control at 25 ppm runs as follows: under setting [1], 26 to 50%; under setting [3], 0 to 25%. In addition, the pest or weed control at 100 ppm reads like this: under setting [2], 76 to 100%; under setting [4], 0 to 25%.

`N#Cc1cccc(COc2ncc(F)c(NCOCc3ccccc3)n2)c1` [Compound 167]: the pest or weed control at 25 ppm is, setting by setting: under setting [1], 0 to 25%; under setting [3], 0 to 25%. Besides, the pest or weed control at 100 ppm is, setting by setting: under setting [2], 26 to 50%; under setting [4], 0 to 25%.

For `Fc1ccccc1CNc1nc(OCc2cccs2)ncc1F` [Compound 168], the pest or weed control at 25 ppm was in the range of 0 to 25% under setting [1] and 0 to 25% under setting [3]. For the same compound, the pest or weed control at 100 ppm lay within 26 to 50% under setting [2] and 26 to 50% under setting [4].

For `CCCNC(=O)Nc1nc(OCc2ccc(OC)c(F)c2)ncc1F` [Compound 170], the pest or weed control at 25 ppm reads like this: under setting [1], 0 to 25%; under setting [3], 0 to 25%. For the same compound, the pest or weed control at 100 ppm reads like this: under setting [2], 0 to 25%; under setting [4], 0 to 25%.

On to `CCc1ccc(COc2ncc(F)c(N)n2)cc1` [Compound 171], for which the pest or weed control at 25 ppm was 76 to 100% under setting [1] and 76 to 100% under setting [3]. Further, the pest or weed control at 100 ppm was 76 to 100% under setting [2] and 76 to 100% under setting [4].

As for `COCCOc1ncc(F)c(N)n1` [Compound 172], the pest or weed control at 25 ppm is, setting by setting: under setting [1], 0 to 25%; under setting [3], 0 to 25%. For the same compound, the pest or weed control at 100 ppm under setting [2] is 0 to 25% and the pest or weed control at 100 ppm under setting [4] was in the range of 0 to 25%.

On to `CC(Oc1ncc(F)c(N)n1)c1ccc(C(C)(C)C)cc1Cl` (centres unmarked) [Compound 173], for which the pest or weed control at 25 ppm by setting is: under setting [1], 51 to 75%; under setting [3], 0 to 25%. The pest or weed control at 100 ppm reads like this: under setting [2], 76 to 100%; under setting [4], 51 to 75%.

Take `COCCOC(=O)Nc1nc(OCc2ccccc2)ncc1F` [Compound 174]: the pest or weed control at 25 ppm runs as follows: under setting [1], 76 to 100%; under setting [3], 76 to 100%. The pest or weed control at 100 ppm under setting [2] lay in the range of 76 to 100% and the pest or weed control at 100 ppm under setting [4] fell in the range of 76 to 100%.

Take `CC(Oc1ncc(F)c(N)n1)c1ccc(-c2ccc(Br)cc2)cc1` (centres unmarked) [Compound 175]: the pest or weed control at 25 ppm fell in the range of 76 to 100% under setting [1] and 0 to 25% under setting [3]. The pest or weed control at 100 ppm by setting is: under setting [2], 76 to 100%; under setting [4], 0 to 25%.

With `CCOC(=O)COC(=O)Nc1nc(OCc2ccc(C)cc2)ncc1F` [Compound 176], the pest or weed control at 25 ppm fell in the range of 51 to 75% under setting [1] and 76 to 100% under setting [3]. The pest or weed control at 100 ppm under setting [2] lay within 76 to 100% and the pest or weed control at 100 ppm under setting [4] lay in the range of 76 to 100%.

For the compound `N#Cc1cccc(COc2ncc(F)c(/N=C/N3CCOCC3)n2)c1` [Compound 177], the pest or weed control at 25 ppm is, setting by setting: under setting [1], 76 to 100%; under setting [3], 76 to 100%. Further, the pest or weed control at 100 ppm reads like this: under setting [2], 76 to 100%; under setting [4], 76 to 100%.

`Nc1nc(OCc2ccc3c(c2)OCO3)ncc1F` [Compound 178]: the pest or weed control at 25 ppm is 76 to 100% under setting [1] and 76 to 100% under setting [3]. The pest or weed control at 100 ppm is, setting by setting: under setting [2], 76 to 100%; under setting [4], 76 to 100%.

As for `CC(=O)Nc1nc(OCc2ccc(C)cc2)ncc1F` [Compound 179], the pest or weed control at 25 ppm is 76 to 100% under setting [1] and 76 to 100% under setting [3]. Besides, the pest or weed control at 100 ppm reads like this: under setting [2], 76 to 100%; under setting [4], 76 to 100%.

Regarding `Nc1nc(O/N=C2\CCc3ccccc32)ncc1F` [Compound 181], the pest or weed control at 25 ppm reads like this: under setting [1], 76 to 100%; under setting [3], 76 to 100%. The pest or weed control at 100 ppm is 76 to 100% under setting [2] and 76 to 100% under setting [4].

Take `CNC(=S)Nc1nc(OCc2ccc(C)cc2)ncc1F` [Compound 182]: the pest or weed control at 25 ppm under setting [5] fell in the range of 76 to 100% and the pest or weed control at 25 ppm under setting [7] is 76 to 100%. Also, the pest or weed control at 100 ppm lay within 76 to 100% under setting [6] and 76 to 100% under setting [8].

In the case of `N#Cc1cccc(COc2ncc(F)c(NC(=O)NCc3ccccc3)n2)c1` [Compound 183], the pest or weed control at 25 ppm by setting is: under setting [5], 0 to 25%; under setting [7], 0 to 25%. Moreover, the pest or weed control at 100 ppm is, setting by setting: under setting [6], 0 to 25%; under setting [8], 0 to 25%.

For the compound `Nc1nc(OCc2ccc(C(F)(F)F)nc2)ncc1F` [Compound 184], the pest or weed control at 25 ppm by setting is: under setting [5], 76 to 100%; under setting [7], 51 to 75%. In addition, the pest or weed control at 100 ppm runs as follows: under setting [6], 76 to 100%; under setting [8], 76 to 100%.

(Values after patent US9204653B2, “5-fluoro pyrimidine derivatives” (DOW AGROSCIENCES LLC, priority 2008, dated 2015).)
